Legend:
[1] = system: APC^min/+ mice; experiment: APC^min/+ mice study, intestinal tumors; assay type: in vivo; conditions: C57BL/6J-APC^min/+ mice; 100 mg/kg/d in mouse chow for 8 weeks
Procedure: (§1) 6-week-old APC^Min/+ male mice on a C57BL/6J background were treated with bHDL 100 mg/kg/day administered in a chow diet. After 8 weeks treatment, mice were sacrificed. The entire intestine was immediately removed, fixed in formalin and 70% ethanol. The intestine was opened and examined under a dissecting microscope to count and measure the tumors.
as §1, with “Six-week-oldAPC^min/+” for “6-week-old APC^Min/+”, “L-4F or sc-4F at” for “bHDL”, “mg/kg/d” for “mg/kg/day”

[2] = system: CD31; experiment: CD31 immunohistochemistry of lung surface tumors; assay type: in vivo, mouse; conditions: 100 mg/kg/d in chow diet for 3 weeks, vs control mice
Procedure: Tumor tissues from the lung surface were fixed and embedded with paraffin, sectioned at […] thickness. Sections were deparaffinized with xylene, rehydrated with 100%, 90%, 70%, and 50% ethanol, treated with proteinase K at […] for 30 minutes, and treated with 3% H2O2 for 30 minutes at room temperature to inhibit endogenous peroxidase, blocked with 10% normal goat serum and 4% bovine serum albumin prepared in PBS for 3 hours, and then incubated with 1:50 rat antimouse monoclonal CD31 antibody overnight at 4° C. The sections were incubated with corresponding biotinylated secondary antibody for 1 hour, followed by incubation with Vectastain ABC Elite reagents.

[3] = system: CT26 cells; experiment: LPA-induced viability of CT26 cells; assay type: cell-based, mouse; conditions: L-4F 10 mg/mL with LPA 5, 10, 48 hours
Procedure: (§2) FIGS. 17A-17B. HDL mimetic, L-4F inhibits LPA induced viability of CT26 cells and reduces LPA levels in cell culture medium. FIG. 17A, CT26 cells were cultured as described in Example 5 and incubated with either L-4F at 10 mg/mL or LPA at a concentration 5, 10, […], or cells were treated with both L-4F and LPA for 48 hours. All experiments were conducted in triplicate and each assay was carried out in quadruplicates. Data are represented as the mean±SD of the percent of control cells. FIG. 17B, LPA levels were measured in the cell culture medium after 48 hours of treatment.
The peptides were dissolved in H2O.

[4] = system: LPA; experiment: LPA levels in CT26 cell culture medium; assay type: cell-based, mouse; conditions: CT26 cells; 48 hours; vs control medium
Procedure: as §2
LPA (20:4) was purchased from Avanti Polar Lipids. LPA levels were determined as described previously (19).
LPA has been identified as an important mediator of tumor development, progression, and metastases in humans (26, 27). We have previously shown that apoAI mimetic peptides inhibit LPA-induced viability of ID8 cells and reduce serum LPA levels in mice injected with ID8 cells (17). […] LPA 20:4 and 18:1 were not detectable in cell culture medium (FIG. 17B).

[5] = system: HIF-1α; experiment: ID8 flank tumor model, HIF-1α immunohistochemistry; assay type: in vivo, mouse; conditions: C57BL/6J mice, ID8 tumors; 10 mg/kg s.c. daily for 3 weeks; vs sc-4F
Procedure: Nine-week-old C57BL/6J female mice were given a 0.5-ml subcutaneous injection of 5×10^6 ID8 cells prepared as a single cell suspension in PBS mixed with an equal volume of cold Matrigel (BD Biosciences, San Jose, Calif.). After 2 weeks, mice started to receive scrambled 4F peptide (sc-4F) or L-4F (10 mg/kg) by subcutaneous injection at a site distant from the site where the ID8 cells were injected daily for 3 weeks. After 3 weeks, the mice were sacrificed for tumor collection and further analyses.
Frozen tumor tissues were sectioned at a thickness of 5 μm and fixed with cold acetone for 10 min at −20° C. The sections were blocked with 10% normal goat serum and 4% bovine serum albumin prepared in PBS for 3 h and immediately incubated with rabbit anti-mouse polyclonal HIF-1α antibody (1:200) (Abcam Inc.) or rat anti-mouse monoclonal CD31 antibody (1:25) (Abcam Inc.) overnight at 4° C. The sections were then incubated with corresponding biotinylated secondary antibodies (Vector Laboratories) for 30 min at room temperature followed by incubation with Vectastain ABC Elite reagents (Vector Laboratories) to visualize the staining. Finally, sections were lightly counterstained with hematoxylin, dehydrated, and coverslipped with Vecta-Mount solution (Vector Laboratories).

[6] = system: ERK1/2; experiment: Insulin-stimulated phosphorylation of ERK1/2 in OV2008 cells, Western blot; assay type: cell-based, human; conditions: 10 μg/ml, insulin 200 nM
Procedure: (§3) FIGS. 10A-10B. Effect of L-4F on the insulin-stimulated activation of downstream signaling molecules in OV2008 cells. After an overnight starvation, OV2008 cells were treated with L-4F (10 μg/ml) for 1 h, and insulin was added at a final concentration of 200 nM. Cell lysates were collected at various time points and subjected to Western blot analysis. FIG. 10A, L-4F inhibits insulin-stimulated phosphorylation of p70s6 kinase and subsequent HIF-1α expression in OV2008 cells. FIG. 10B, effect of L-4F on insulinstimulated phosphorylation of ERK1/2 and Akt in OV2008 cells.
(§4) Western blot analyses were performed as described previously (Gao et al., 2011). In brief, cell lysates were collected in a lysis buffer containing 0.1 MNaCl, 5 mM EDTA, 50 μM sodium orthovanadate, 1% Triton X-100, and protease inhibitor tablet (Roche Diagnostics, Indianapolis, Ind.) in 50 mM Tris buffer, pH 7.5, loaded onto 4 to 12% Bis-Tris gel (Invitrogen), transferred to polyvinylidene difluoride membrane, and incubated with the appropriate antibodies. […]

[7] = system: Akt; experiment: Insulin-stimulated phosphorylation of Akt in OV2008 cells, Western blot; assay type: cell-based, human; conditions: 10 μg/ml, insulin 200 nM
Procedure: as §3, §4

[8] = system: ROS; experiment: Cellular reactive oxygen species, dichlorofluorescein oxidation assay in OV2008 cells; assay type: cell-based, human; conditions: 10 μg/ml pretreatment 1 h
Procedure: As described previously (Zhou et al., 2007; Lee et al., 2009), OV2008 cells were plated onto a glass slip (Thermo Fisher Scientific) in a 24-well plate at 4×10^4 cells per well, cultured overnight in normal cultured condition, starved in serum-free media overnight, and treated with L-4F (10 μg/ml) for 1 h. Then, dichlorofluorescein diacetate (DCFHDA, 10 μM) and insulin (200 nM)/CoCl2 (100 μM) were added and incubated with the cells for an additional 0.5 h. The cells were washed twice with phosphate-buffered saline (PBS). The images were captured with a fluorescence microscope (Olympus IX70; Olympus, Tokyo, Japan).

## Ac-DWFKAFYDKVAEKFKEAF-NH2 [L-4F, Ac-D-W-F-K-A-F-Y-D-K-V-A-E-K-F-K-E-A-F-NH2]
[1]
  numbers of tumors of diameter 1-3 mm: 36.8
  numbers of tumors of diameter >3 mm: 5
  total tumor numbers in the intestinal tract, percent of the control: 60%
[2]
  CD31 expression in tumors: significant decrease
[3]
  LPA-induced viability: significantly reduced
[4]
  LPA 16:0 and 18:0 levels in cell culture medium: significantly decreased
[5]
  HIF-1α expression in tumor tissues: decreased
[6]
  insulin-stimulated activation of ERK1/2: inhibited activation
[7]
  insulin-stimulated phosphorylation of Akt: no effect on the phosphorylation of Akt, except at 0.5 h
[8]
  cellular ROS production induced by insulin and CoCl2: dramatically prevented
